The results in this text go back to publication PMC12589438 (Communications Chemistry, 2025).

A short description of data set [1]: Stability test at different pH (buffered solutions). Conditions: buffer.
Description: (§3) Tested peptides were dissolved (1 mM) in 100 mM sodium citrate buffer (pH 3), 100 mM potassium phosphate buffer (pH 7), or 100 mM sodium carbonate buffer (pH 9).
Another data set in a line: in vitro. The note with it: rat, serum.
A short description of a further data set: physchem. Conditions: buffer.
The target in a further data set is T1, human OTR (Homo sapiens, UniProt P30559).
T1 construct: expressed in transfected cells; host or cells: COS-1
T1 sequence (P30559 1-389): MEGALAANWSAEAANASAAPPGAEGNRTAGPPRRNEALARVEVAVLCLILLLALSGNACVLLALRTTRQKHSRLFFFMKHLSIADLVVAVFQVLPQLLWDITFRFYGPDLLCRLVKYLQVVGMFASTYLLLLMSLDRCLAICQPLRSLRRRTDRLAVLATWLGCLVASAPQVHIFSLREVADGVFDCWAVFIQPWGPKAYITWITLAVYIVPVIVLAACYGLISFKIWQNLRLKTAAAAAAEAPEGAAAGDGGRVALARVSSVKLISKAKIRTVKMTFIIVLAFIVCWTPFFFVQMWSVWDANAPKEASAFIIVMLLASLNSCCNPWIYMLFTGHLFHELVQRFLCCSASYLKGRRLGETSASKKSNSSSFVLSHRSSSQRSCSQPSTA
Put plainly: FLIPR calcium mobilisation assay, hOTR. It is filed as cell-based. Conditions: for EC50: COS-1 cells transfected with hOTR, n = 3, mean ± SEM. On the procedure: (§1) OTR belongs to the rhodopsin-type (class I) G protein-coupled receptor (GPCR) family and is closely related to the vasopressin (VP) receptor (VPR) family (V1aR, V1bR, V2R). […] OTR, V1aR, and V1bR are expressed in the periphery and in CNS, while V2R is primarily expressed in the kidneys and was deemed not in scope for our exploration. The EC50 of our ligands was measured using a Fluorescent Imaging Plate Reader (FLIPR) calcium mobilisation assay (Fig. 2C)[34].
(§2) COS-1 cells were cultured in Dulbecco’s modified Eagle’s medium (DMEM) and 5% foetal bovine serum (FBS). […] Fluo-4-AM [4-(6-acetoxymethoxy-2,7-difluoro-3-oxo-9-xanthenyl)-4′-methyl-2,2′-(ethylenedioxy)dianilineN,N,N′,N′-tetraacetic acid tetrakis(acetoxymethyl) ester] ([…]) in PSS containing 0.3% fatty acid-free BSA was then added, and the cells incubated for 30 min at 37 °C. […] The baseline fluorescence was set to a minimum of 1000 arbitrary fluorescence units. The baseline fluorescence was read 10 times, followed by the addition of test compounds and fluorescence measurement every second for 180 s. The test compounds were added as an 8-point gradient in triplicate, with the highest concentration of 10 μM in PSS. To convert the raw fluorescence data to DF/F, the baseline fluorescence readings were subtracted from subsequent time points, and the resulting value was divided by the baseline fluorescence values.

The conditions of data set [2]: pH 7.
Description: as §3
Another data set addresses T2, human V1aR (Homo sapiens, UniProt P37288).
T2 construct: expressed in transfected cells; host or cells: COS-1
Put plainly: FLIPR calcium mobilisation assay, hV1aR. The note with it: COS-1 cells transfected with hV1aR; n = 3, mean ± SEM. It is filed as cell-based. On the procedure:
as §1
as §2, with “°C. The cells were then transferred to a” for “°C.”
Background: Calcium assays in cells follow changes in intracellular calcium, usually with a dye or a luminescent sensor.

The next data set has as its target T3, human V1bR (Homo sapiens, UniProt P47901).
T3 construct: expressed in transfected cells; host or cells: COS-1
T3 sequence (P47901 1-424): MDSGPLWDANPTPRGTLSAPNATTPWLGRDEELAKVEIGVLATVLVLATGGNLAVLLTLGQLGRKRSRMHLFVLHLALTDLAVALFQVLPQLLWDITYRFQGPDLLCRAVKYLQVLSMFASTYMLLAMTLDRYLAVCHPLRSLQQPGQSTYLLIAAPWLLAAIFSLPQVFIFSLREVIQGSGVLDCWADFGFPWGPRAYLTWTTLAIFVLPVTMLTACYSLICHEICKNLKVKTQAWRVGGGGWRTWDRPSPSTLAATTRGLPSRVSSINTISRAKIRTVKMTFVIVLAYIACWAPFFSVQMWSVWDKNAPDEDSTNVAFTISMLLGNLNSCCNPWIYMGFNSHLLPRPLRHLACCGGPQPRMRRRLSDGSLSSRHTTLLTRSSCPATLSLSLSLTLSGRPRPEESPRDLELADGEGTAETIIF
Put plainly: FLIPR calcium mobilisation assay, hV1bR. The format is cell-based. Conditions: COS-1 cells transfected with hV1bR; n = 3, mean ± SEM. On the procedure:
as §1, §2

A short description of data set [3]: Hydrophobicity assessment by analytical C18-RP-HPLC. The format is physicochemical. The note with it: 0–40% B. On the procedure:
To identify the most OT-like radiotracer, we first assessed the hydrophobicity of all compounds by comparing their retention times with OT on an analytical C18-RP-HPLC column (Fig. 2A).
Fig. 2 Pharmacological characterisation of OT analogues. […] B Metabolic stability of OT analogues in rat and human serum. Each time point was analysed in three independent experiments (n = 3 technical triplicates, mean ± SEM). C Potencies (EC50) values for OT and analogues at the human OTR, V1aR, and V1bR, determined by a FLIPR calcium mobilisation assay (n = 3 technical triplicates, mean ± SEM). […]; similar hydrophobicity with HPLC Rt ± 20% from OT; buffer t1/2 > 30 min at pH 7; […]; EC50 at OTR < 50 nM; EC50 at V1aR and V1bR < 5×EC50(OTR) (n.a.: not assessed).

[4] abbreviates: pH 3, t1/2 pH 3.0, 100 mM sodium citrate buffer pH 3, 10 h.
Setting [5] is: pH 7, t1/2 pH 7.0, 100 mM potassium phosphate buffer pH 7, 10 h.
The mark [6] stands for this setting: pH 9, t1/2 pH 9.0, 100 mM sodium carbonate buffer pH 9, 10 h.

Positions of bridges follow the written chain, without caps; N, C: chain ends. Non-standard residues stand in square brackets, D forms with d. Residues, ends and D or L forms follow the SMILES beside them. *: point of attachment. Benzoyl(4-F) = O=C(c1ccc(F)cc1)*; Mpa = O=C(O)CCS

T2 sequence (P37288 whole entry): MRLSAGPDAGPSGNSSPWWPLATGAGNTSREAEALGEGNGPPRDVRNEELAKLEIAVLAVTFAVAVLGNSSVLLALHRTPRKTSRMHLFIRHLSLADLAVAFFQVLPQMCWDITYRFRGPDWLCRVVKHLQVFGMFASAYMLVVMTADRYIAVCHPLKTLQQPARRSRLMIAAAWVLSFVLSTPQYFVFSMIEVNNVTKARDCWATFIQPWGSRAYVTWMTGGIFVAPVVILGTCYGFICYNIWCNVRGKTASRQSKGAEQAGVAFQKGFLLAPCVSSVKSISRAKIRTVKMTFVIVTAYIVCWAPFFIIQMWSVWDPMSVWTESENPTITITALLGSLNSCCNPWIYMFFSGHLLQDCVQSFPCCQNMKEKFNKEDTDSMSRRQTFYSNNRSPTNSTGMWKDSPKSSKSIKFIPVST
Description for in vitro: One hundred and fifty microliters of rat or human serum (Sigma Aldrich) was preheated at 37 °C for 30 min. 25 μL of the tested peptide sample (0.3 M in 0.1 M potassium phosphate buffer at pH 7.2) or 0.1 M potassium phosphate buffer pH 7.2 (for blank sample) were added to the serum and incubated at 37 °C. […] Sampled were centrifugated at 20,000 × g for 10 min, and the supernatant analysed via LC-MS (column: Agilent Technology, Zorbex C18, 2.1 × 100 mm, 5 μm, 300 Å. Elution method: 0–50% B in 50 min, 0.25 mL/min. Solvent A: 0.1% TFA in H2O. Solvent B: 0.1% TFA in ACN). Each peptide sample was analysed in three independent experiments, and data analysis was performed using Prism Version 7, a nonlinear fit one-phase decay model.
Description for physchem: as §3

What is called half-life is the time in which the quantity being followed falls by half. A lower half-life goes with fast loss. With `CC[C@H](C)[C@@H]1NC(=O)[C@H](Cc2ccc(O)cc2)NC(=O)CCSSC[C@@H](C(=O)N2CCC[C@H]2C(=O)N[C@@H](CCCCNCCS(=O)(=O)F)C(=O)NCC(N)=O)NC(=O)[C@H](CC(N)=O)NC(=O)[C@H](CCC(N)=O)NC1=O` [dOTK^8[ESF]], the half-life at 1 mM in data set [1] (setting [4]), in data set [1] (setting [5]) and in data set [1] (setting [6]) was over 10 h each time.

What is called EC50 is the concentration at which the effect is half-maximal. In “in vitro”, `CC[C@H](C)[C@@H]1NC(=O)[C@H](Cc2ccc(O)cc2)NC(=O)CCSSC[C@@H](C(=O)N2CCC[C@H]2C(=O)N[C@@H](CCCCNC(=O)c2ccc(F)cc2)C(=O)NCC(N)=O)NC(=O)[C@H](CC(N)=O)NC(=O)[C@H](CCC(N)=O)NC1=O` [dOTK^8[SFB]] ([Mpa]YIQNCPK(Benzoyl(4-F))G-NH2; disulfide 1-6) had a half-life at 0.043 M of over 48 h. Moreover, the half-life at 1 mM in “physchem” (pH 3), in the data set “physchem” (pH 7) and in “physchem” (pH 9) was over 10 h throughout. Besides, the EC50 was 46.8 ± 1.5 nM on human OTR, 334.3 ± 0.6 nM at human V1aR and 46 ± 3.6 nM on human V1bR. The “fold less potent than OT at OTR” value on human OTR (EC50 compared with OT) is recorded as ~ 4 fold. For the same molecule, in data set [2], the “degradation within 10 h” value is reported as 25%.

With `CC[C@H](C)[C@@H]1NC(=O)[C@H](Cc2ccc(O)cc2)NC(=O)[C@@H](N)CSSC[C@@H](C(=O)N2CCC[C@H]2C(=O)N[C@@H](CCCCNC(=O)CON=C[C@H](F)[C@@H](O)[C@H](O)[C@H](O)CO)C(=O)NCC(N)=O)NC(=O)[C@H](CC(N)=O)NC(=O)[C@H](CCC(N)=O)NC1=O` [OTK^8[Aoa-FDG]], the half-life at 0.043 M in “in vitro” is 13 ± 0.11 h. The half-life at 1 mM in the data set “physchem” (pH 3), in “physchem” (pH 7) and in “physchem” (pH 9) was over 10 h throughout. Moreover, the EC50 on human OTR was determined as 5.25 ± 5.1 nM; at human V1aR, 115 ± 81 nM; at human V1bR it was 54 ± 31 nM. For the same molecule, on human OTR (EC50 compared with OT), the “fold more potent than OT at OTR” value was ~ 2 fold. The “degradation within 10 h” value in data set [2] amounted to 25%.

With `CC[C@H](C)[C@@H]1NC(=O)[C@H](Cc2ccc(O)cc2)NC(=O)[C@@H](N)CSSC[C@@H](C(=O)N2CCC[C@H]2C(=O)N[C@@H](CCCCNC(=O)CON=Cc2ccc(F)cc2)C(=O)NCC(N)=O)NC(=O)[C@H](CC(N)=O)NC(=O)[C@H](CCC(N)=O)NC1=O` [OTK^8[Aoa-FBA]], the half-life at 0.043 M in the data set “in vitro” was 18 ± 0.04 h. Further, the half-life at 1 mM in the data set “physchem” (pH 3), in the data set “physchem” (pH 7) and in the data set “physchem” (pH 9) was over 10 h throughout. Further, the results for the EC50 at human OTR, on human V1aR and on human V1bR were 42.1 ± 1.4 nM, 331.6 ± 0.4 nM and 354 ± 5.7 nM, respectively. Also, the “fold less potent than OT at OTR” value at human OTR (EC50 compared with OT) is listed as ~ 4 fold. Moreover, the “hydrophobicity compared with OT (retention on C18-RP-HPLC)” value in data set [3] was “significantly more hydrophobic”.

Turning to `CC[C@H](C)[C@@H]1NC(=O)[C@H](Cc2ccc(O)cc2)NC(=O)CCSSC[C@@H](C(=O)N2CCC[C@H]2C(=O)N[C@@H](CCCCN(CCS(=O)(=O)F)CCS(=O)(=O)F)C(=O)NCC(N)=O)NC(=O)[C@H](CC(N)=O)NC(=O)[C@H](CCC(N)=O)NC1=O` [dOTK^8[ESF2]], the “hydrophobicity compared with OT (retention on C18-RP-HPLC)” value in data set [3] is given as “significantly more hydrophobic”. Further, the half-life at 1 mM was 3.6 h in data set [1] (setting [4]); under 0.5 h in data set [1] (pH 7, t1/2 at pH 7, pH 7, as stated in main text); under 1 h in data set [1] (setting [5]); under 0.5 h in data set [1] (pH 9, t1/2 at pH 9, pH 9, as stated in main text); under 1 h in data set [1] (setting [6]).

Take `CC[C@H](C)[C@@H]1NC(=O)[C@H](Cc2ccc(O)cc2)NC(=O)[C@@H](N)CSSC[C@@H](C(=O)N2CCC[C@H]2C(=O)N[C@@H](CC(C)C)C(=O)NCC(N)=O)NC(=O)[C@H](CC(N)=O)NC(=O)[C@H](CCC(N)=O)NC1=O` [OT, oxytocin, reference compound]: the half-life at 0.043 M in “in vitro” was 47 ± 0.05 h. Also, the half-life at 1 mM in “physchem” (pH 3), in “physchem” (pH 7) and in “physchem” (pH 9) was over 10 h throughout.
